The text below walks through data of US20220389389A1, “METHODS AND A KIT TO REPROGRAM SOMATIC CELLS” (Novoxyne LLC, priority 2019, published 2022).

Data set [1] deals with PIFs. The conditions noted are these: in vitro culture; cited from earlier work.
The conditions of data set [2]: cited from earlier work.
Data set [3] has as its system iPSC generation from fibroblasts. Particulars: without c-Myc and Klf4; cited from earlier work.
For data set [4], the system named is bone marrow cells. Nature of the data set: MSAIC inhibition assay with GsMTX4 / matrix stiffness culture, PI gene messages by real time PCR. Particulars: 5 μM GsMTX4, 16 hours. The data set is classed as cell-based, mouse. How it is done:
(§1) C57BL/6 male mice (4-6 weeks old) were purchased from Jackson Laboratory. Bone marrow cells and spleen cells were obtained from 4-6-week-old male C57BL/6 mice. Cells in single cell suspension were red cell-depleted before use. Bone marrow stromal cells were cultured and passaged in T75 culture flask as it was described [Torino et al., Bio-protocol 4: e1031 (2014)]. The embryonic fibroblast was prepared from 13-day fetus of C57BL/6 as described previously [Qiu et al., Bio-protocol 6: e1859 (2016)]. Cells used for the reprogramming were those cultured for 2 to 4 passage periods.
(§2) Cells were cultured in 6 well plates (10^7 cells/well) in triplicate per group. GsMTX4 dissolved in PBS was added to the concentration 5 μM in the experimental group. Sixteen hours later, cells were harvested by scraper for spleen cells and bone marrow cells, pelleted for total RNA-extraction with RNeasy (Qiagen) or Trizol (Invitrogen). For EF cells and BM stromal cells, cell culture medium was drained and directly resuspended to the cell lysis buffer in the culture wells. Extracted RNAs were subjected to cDNA synthesis (Applied Bioscience) and analyzed for the messages specific for mouse PI genes and control genes by real time PCR thereto cycler (Bio-Rad, CFX384). Primers used were: Oct4 (5′: […] (SEQ ID NO:5), 3′: […] (SEQ ID NO:6), Sox2 (5′: […] (SEQ ID NO:7), 3′: […] (SEQ ID NO:8), Nanog (5′: […] ([…]), 3′: […] (SEQ ID NO:10), CFBP/α (5′: […] (SEQ ID NO:11), 3′: […] (SEQ ID NO:12), c-Myc (5′: […] (SEQ ID NO:13), 3′: TTATGCACCAGAGTTTCG (SEQ ID NO:14), RUNX1 (5′: […] (SEQ ID NO:15), 3′: […] (SEQ ID NO:16), PU1 (5′: […] (SEQ ID NO:17), 3′: […] (SEQ ID NO:18), IRF8 (5′: […] (SEQ ID NO:19), 3′: […] (SEQ ID NO:20), FOXP1 (5′: […] (SEQ ID NO:21), 3′: […] (SEQ ID NO:22), KLF4 (5′: […] (SEQ ID NO:23), 3′: […] (SEQ ID NO:24), Actin (5′: […] (SEQ ID NO:25), 3′: […] (SEQ ID NO:26), GAPDH 5′: […] (SEQ ID NO:27), 3′: […] (SEQ ID NO:28). The value of each Cq (Ct) were applied to the formula by which the message level of each specific gene (shown by the index value) was estimated in comparison to that of Actin or GAPDH housekeeping genes.
(§3) Tissue culture plates with defined elasticity surface (0.2, 4, 50 kpa) were purchased from Matrigen. To cast polyacrylamide gel in petri-dishes, 3.5 cm petri-dish was used. Each dish was loaded with 330 μL of polyacrylamide gel cocktail and promptly the size-matched drop lid (polypropylene) was placed on the top (FIG. 30). Three different elasticities of the polyacrylamide gel were prepared in the study. The ratio of [acrylamide (40%): bis-acrylamide (2%): water] was determined according from the published data [Tse and Engler, Curr. Protoc. Cell Biol. Chapt. 10 Unit 10.16 (2010)]. Those were (75:112.5:812.5) for 1.7 kpa, (100:150:750) for 3.2 kpa and (250:30:720) for 7.4 kpa. The slice of the 50 ml conical centrifuge tube caps were used for the drop caps (arrow-pointed in FIG. 30).
In experiments, mouse bone marrow cells were in vitro 37° C. cultured 16 hours in the presence of 5 μM GsMTX4. Cells were then assayed for the PI genes' messages as listed in the left of the FIG. 1. […] The presence of GsMTX4 in the culture was expected to prevent cells from sensing the strong stretch stress by MSAICs. Strikingly, the cells cultured in the presence of GsMTX4 expressed greater than 100 times of Oct4 message compared with the control cells (FIG. 1). […] 10(1): e1004079 (2014); North et al., Stem Cells. 22:158 (2004)].
The fresh bone marrow cells were cultured for 16 hours in 6 well plates with GsMTX4 (5 μM) in DMEM supplemented with 10% FBS. The messages specific for the genes listed in the left were real time PCR-characterized and presented as the relative index in comparison with the value of β-actin message. […]
(Quantitative PCR measures a nucleic acid by following its amplification.)

Data set [5] relates to spleen cells. Nature of the data set: MSAIC inhibition assay with GsMTX4, PI gene messages by real time PCR. The format is cell-based, mouse. Here is the method:
as §1
as §2, with “The value of each Cq (Ct) were applied to the formula by which the message level of each specific gene (shown by the index value) was estimated in comparison to that of Actin or GAPDH housekeeping genes.” left out
Spleen cells were 37° C.-treated with MβCD before the in vitro culture with GsMTX4 as described in FIG. 1. ND: not detected.

The subject of data set [6] is bone marrow stroma cell line. The description is as above. The format is cell-based, mouse. Particulars: GsMTX4, O/N culture. How it is done:
as §1
(§4) Cells were cultured in 6 well plates (10^7 cells/well) in triplicate per group. GsMTX4 dissolved in PBS was added to the concentration 5 μM in the experimental group. Sixteen hours later, cells were harvested by scraper for spleen cells and bone marrow cells, pelleted for total RNA-extraction with RNeasy (Qiagen) or Trizol (Invitrogen). For EF cells and BM stromal cells, cell culture medium was drained and directly resuspended to the cell lysis buffer in the culture wells. Extracted RNAs were subjected to cDNA synthesis (Applied Bioscience) and analyzed for the messages specific for mouse PI genes and control genes by real time PCR thereto cycler (Bio-Rad, CFX384). […]

Data set [7] relates to EF cells. The description is as above. The format is cell-based, mouse. How it is done: as §1, §4
Data set [8] deals with EF cells. Nature of the data set: RT-PCR assay for the expression of PI genes in the reprogramming cultures of EF cells. The format is cell-based, mouse. Here is the method: Cells were suspended in DMEM supplemented with 5 mM MβCD at the concentration of 2×10^6/ml in 15 ml centrifuge tube. Cell suspension was incubated for 30 min at 37° C. with every 5 min gentle agitations. Washed once with 37° C. warmed DMEM/F12 and resuspended in small volume complete medium (30 μl/2×10^6 cells) [DMEM/F12 (Corning), 20% knockout serum replacement (Gibco), 1% nonessential amino acids (Gibco), 5×10^−5M 2-Mercaptethanol]. To initiate reprogramming culture on hydrogel, petri dish was added with 2.5 ml complete medium, then 30 μl of cell suspension was loaded on the hydrogel. Multiple dishes were housed in a 15 cm diameter petri dish with a water filled un-lid 6 cm petri dish. Cells on the gel and on the dish-bottom surface were monitored daily and the remarkable phenotype cells were recorded with EVOS cell monitoring system (Thermofisher). Various phenotype cells were characterized by the assays for the markers specific for the cell lineages (e.g., Oil red 0 for the adipocytes and alizarin for calcium deposited cells) as commonly available methods.
Cells derived from the MβCD-treated and hydrogel-exposed culture in petri dish were subjected to the extraction of total RNA by Trizol. cDNAs were prepared as described above and the regular PCR was performed (35 cycle) using PCR master mix (Biotool) and the primers listed above for the real time PCR assays. The PCR products were resolved using 1.5% agarose gel, Ethidium Bromide-stained and the results were acquired by Gel Documentation system (Bio-Rad).
EF cells were MβCD-treated and cultured in the hydrogel-casted petri dishes for 7 days before RNA extraction. The stiffness of the hydrogel was listed on the top of each lane. Total RNAs from spheres and dish-adhered cells were analyzed for the expression of the PI genes by RT-PCR. PCR-amplified fragments were dissolved by 1.5% agarose gel and stained by Ethidium Bromide. […]
EF cells were MβCD-treated and cultured in the petri dishes. […] The message for each PI gene was analyzed as described in FIG. 1 and shown in B.

Data set [9] deals with EF cells. Nature of the data set: Reprogramming and differentiation culture of EF cells, microscopy and staining. The data set is classed as cell-based, mouse. How it is done: as §3
Ninety minutes later drop lids were carefully removed and the gels in the dishes were washed 5 times with 3 ml of sterile water. Each aspiration of the water from the dish was gently performed with 1 ml micro pipettor. During the washing, casted acrylamide gel come off the bottom. […]
Cells were suspended in DMEM supplemented with 5 mM MβCD at the concentration of 2×10^6/ml in 15 ml centrifuge tube. […] Cells on the gel and on the dish-bottom surface were monitored daily and the remarkable phenotype cells were recorded with EVOS cell monitoring system (Thermofisher). […]

Data set [10] deals with Human PBMC. Description: Nuclear reprogramming of human peripheral blood mononuclear cells. The data set is classed as cell-based. Particulars: 5 mM MβCD twice 20 min, then soft polyacrylamide gel culture. An excerpt:
Human PBMC is an attractive source of somatic cells for reprogramming to stem cells by the available iPSC technology. The sampling of the peripheral blood is a common practice in the medicine and possible to obtain at the individual specific fashion. The purification of the PBMC is also a regular method by Ficol gradient centrifugation. […] 27, 10-(2018), U.S. Pat. No. 9,447,382B2]. To investigate if the methods of the current invention can apply to reprogram human PBMC into the stem cell-like cells, and also differentiate into the de novo phenotypes in vitro, experiments were conducted in which cell were treated with MβCD and then cultured on the soft polyacrylamide gel as described infula.
Human peripheral blood was corrected into the heparinized tube from left forearm vein. The blood mononuclear cells were separated using the Ficoll-Hypaque technique (density, 1.077; Pharmacia Biotech, Uppsala, Sweden). Cells were twice repeatedly 37° C. incubated for 20 min with 5 mM MβCD in DMEM, pelleted by centrifugation at 900 g at room temperature. Washed once with 37° C. warmed DMEM/F12 and resuspended in small volume complete medium (30 μl/2×10^6 cells) [DMEM/F12 (Corning), 20% knockout serum replacement (Gibco), 1% nonessential amino acids (Gibco), 5×10^−5M 2-Mercaptethanol]. Cells in the culture petri-dishes were monitored daily by microscopy and novel phenotype cells were recorded. […]

Consider `C[S+](C)[O-]` [DMSO], for which the “expression of PIFs” value in [1] is “repressed”.

Take `Cc1c(C(=O)Nc2cccc(C(F)(F)F)c2)cc(-c2ccccc2)n1CCCN1CCOCC1` [HC 067047]: the solubility entry in data set [2] is recorded as “only soluble in DMSO or alcohols”.

Take `CCCC(CCC)C(=O)O` [Valproic acid]: the “increase of reprogramming efficiency over the four transcription factor method” value in data set [3] is recorded as 100 fold.

For the compound GsMTX4, in data set [4], the C/EBPα expression result is recorded as “activated prominently”, the “FOXP1 (non-PI gene) expression change” value is “the expression change was small”, the “IRF8 (non-PI gene) expression change” value is recorded as “the expression change was small” and the RUNX1 expression entry was “activated prominently”. Also, the Sox2 expression result in [4] is “activated prominently”. The “Oct4 message compared with the control cells” value in [4] (37° C., polystyrene surface) is given as “greater than 100 times”. For the same compound, the PI genes expression entry in [5] (GsMTX4, 16 hours) is “consistently repressed”. Besides, the PI genes expression result in data set [5] (GsMTX4, day 3) is on record as “activation of the PI genes was significantly observed”. The PI genes expression result in data set [6] was “resembled to that of fresh bone marrow cells”. For the same compound, in [7] (GsMTX4, 16 hours), the PI genes expression entry is on record as “responded like that observed in the study of fresh spleen cells”. For the same compound, the PI genes expression result in data set [7] (GsMTX4, day 3) is given as “found activated”. For the same compound, in data set [2], the solubility entry is “water soluble”.

Turning to methyl-β-cyclodextrin [MβCD], the “PI genes expression in response to GsMTX4 after MβCD treatment” value in data set [5] (37° C. MβCD treatment, then GsMTX4 O/N culture) is “activation of PI genes”. Moreover, the “time to detection of un-spliced PI gene messages after cholesterol depletion” value in data set [8] (MβCD-treated EF cells attached to dish bottom) is no more than 24 h. Also, the “presence of spliced PI gene messages” value in data set [8] (MβCD-treated EF cells attached to dish bottom, day 1, 4, 7) is “present only in the cells cultured 7 days”. Further, in data set [8] (MβCD-treated, hydrogel-casted petri dishes, 7 days), the “messages for Oct4, Nanog, and Sox2 at predicted sizes in bottom-adhered cells” value was “significant messages”. In addition, in data set [9] (EF cells), the “efficiency of generating stem cell-like / differentiated cells” value is recorded as “greater efficiency than that of the hydrogel only”. Also, the “sphere formation on hydrogel” value in data set [9] (MβCD, then low pascal hydrogels (1.7, 3.2, 7.4 kpa), O/N culture) is given as “formation of various size spheres were observed”. The “appearance of novel-phenotype cells” value in [10] is “observed novel-phenotype cells”.
